Data as given in patent publication US11584765B2 (priority 2017, dated 2023).

System: C57BL/6 mice
Assay: animal or person
Assay type: in vivo
Conditions: Mus musculus, sc, 0.5 h, s.c. administration, 30 min, 55° C. water, read-out: ED50 (mg/kg) at 30 min on C57BL/6 mice in Warm-water Tail-flick Test

| Structure (SMILES) | ED50 |
| --- | --- |
| CCOCC1(CCc2ccccc2)CCN(Cc2ccc(C(C)=O)cc2)CC1 [Compound 146, 1-(4-((4-(ethoxymethyl)-4-phenethylpiperidin-1-yl)methyl)phenyl)ethanone] | > 10 mg/kg |
| CCCCC[C@]1(COCC)CCN(C(C)(C)c2ccc(C)nc2)C1.Cl [Compound 459, (S)-5-(2-(3-(ethoxymethyl)-3-pentylpyrrolidin-1-yl)propan-2-yl)-2-methylpyridine HCl] | < 10 mg/kg |
| CCOCC1(CCc2cnccn2)CCN(C(C)c2ccc(C)nc2)C1.Cl (stereo not drawn) [Compound 357, 2-(2-(3-(ethoxymethyl)-1-(1-(6-methylpyridin-3-yl)ethyl)pyrrolidin-3-yl)ethyl)pyrazine HCl] | < 10 mg/kg |
| CCOCC1(CCc2csc3ccccc23)CCN(Cc2cccnc2)C1 (stereo not drawn) [Compound 309, 3-((3-(2-(benzo[b]thiophen-3-yl)ethyl)-3-(ethoxy-methyl)pyrrolidin-1-yl)methyl)pyridine] | > 10 mg/kg |
| CCOCC1(CCc2ccc(Cl)cc2)CCN(Cc2cccnc2)C1 (stereo not drawn) [Compound 289, 3-((3-(4-chlorophenethyl)-3-(ethoxy-methyl)pyrrolidin-1-yl)methyl)pyridine] | > 10 mg/kg |
| CCOC[C@@]1(CCc2ccccn2)CCN(C(C)(C)c2ccc(C)nc2)C1 [Compound 359, (S)-5-(2-(3-(ethoxymethyl)-3-(2-(pyridin-2-yl)ethyl)pyrrolidin-1-yl)propan-2-yl)-2-methylpyridine] | < 10 mg/kg |
| CCOC[C@@]1(CCC2CC2)CCN(C2(c3ccc(C)nc3)CC2)C1 [Compound 466, (S)-5-(1-(3-(2-cyclopropylethyl)-3-(ethoxy-methyl)pyrrolidin-1-yl)cyclopropyl)-2-methylpyridine] | < 10 mg/kg |
| COCCC1(c2ccccn2)CCN(Cc2ccc(C)nc2C)C1 (stereo not drawn) [Compound 314, 3-((3-(2-methoxyethyl)-3-(pyridin-2-yl)pyrrolidin-1-yl)methyl)-2,6-dimethylpyridine] | > 10 mg/kg |
| Cn1ccnc1CN1CCC(CCc2ccccc2)(C2CCCO2)C1 (stereo not drawn) [Compound 222, l-methyl-2-((3-phenethyl-3-(tetrahydrofuran-2-yl)pyrrolidin-1-yl)methyl)-1H-imidazole] | > 10 mg/kg |
| CCOCC1(CCc2ccccc2)CCN(Cc2ccc(-c3nncs3)cc2)CC1 [Compound 138, 2-(4-((4-(ethoxymethyl)-4-phenethylpiperidin-1-yl)methyl)phenyl)-1,3,4-thiadiazole] | > 10 mg/kg |
| CC(=O)Nc1ccc(CN2CCC(CCc3ccccc3)(C3OCC=C3C)C2)cc1 (stereo not drawn) [Compound 216, N-(4-((3-(3-methyl-2,5-dihydrofuran-2-yl)-3-phenethylpyrrolidin-1-yl)methyl)phenyl)acetamide] | < 10 mg/kg |
| CC(C)(c1cccnc1)N1CCC(CCc2ccccc2)(c2ccccn2)CC1 [Compound 433, 2-(4-phenethyl-1-(2-(pyridin-3-yl)propan-2-yl)piperidin-4-yl)pyridine] | < 10 mg/kg |
| CCOCC1(CCc2cc(C)cs2)CCN(Cc2ccc(C)nc2)CC1 [Compound 299, 5-((4-(ethoxymethyl)-4-(2-(4-methylthiophen-2-yl)ethyl)piperidin-1-yl)methyl)-2-methylpyridine] | < 10 mg/kg |
| CC(=O)N(C)c1ccc(CN2CCC(CCc3ccccc3)(c3ccccn3)CC2)cc1 [Compound 17, N-methyl-N-(4-((4-phenethyl-4-(pyridin-2-yl)piperidin-1-yl)methyl)phenyl)acetamide] | > 10 mg/kg |
| CCOC[C@@]1(CCc2cccs2)CCN(Cc2ccc(=O)[nH]c2)C1.Cl [Compound 454, (S)-5-((3-(ethoxymethyl)-3-(2-(thiophen-2-yl)ethyl)pyrrolidin-1-yl)methyl)pyridin-2(1H)-one HCl] | > 10 mg/kg |
| CCOCC1(CCc2ccccc2)CCN(c2ccc(NC(C)=O)cc2)CC1 [Compound 125, N-(4-(4-(ethoxymethyl)-4-phenethylpiperidin-1-yl)phenyl)acetamide] | > 10 mg/kg |
| CCOC[C@@]1(CCc2ccc(OC)nc2)CCN(C(C)(C)c2ccc(C)nc2)C1.Cl [Compound 370, (S)-5-(2-(3-(ethoxymethyl)-1-(2-(6-methylpyridin-3-yl)propan-2-yl)pyrrolidin-3-yl)ethyl)-2-methoxypyridine HCl] | < 10 mg/kg |
| CCOC[C@@]1(COc2ccccc2)CCN(Cc2cccnc2)C1.Cl [Compound 444, (R)-3-((3-(ethoxymethyl)-3-(phenoxy-methyl)pyrrolidin-1-yl)methyl)pyridine HCl] | < 10 mg/kg |
| CCOCC1(CCc2sccc2C)CCN(Cc2cnn(C)c2)CC1 [Compound 268, 4-(ethoxymethyl)-1-((1-methyl-1H-pyrazol-4-yl)methyl)-4-(2-(3-methylthiophen-2-yl)ethyl)piperidine] | < 10 mg/kg |
| CCOCC1(CCc2sccc2C)CCN(Cc2cccnc2)C1 (stereo not drawn) [Compound 283, 3-((3-(ethoxymethyl)-3-(2-(3-methylthiophen-2-yl)ethyl)pyrrolidin-1-yl)methyl)pyridine] | < 10 mg/kg |
| CCOCC1(CCc2ccccc2)CCN(Cc2ccc3[nH]c(=O)oc3c2)CC1 [Compound 111, 6-((4-(ethoxymethyl)-4-phenethylpiperidin-1-yl)methyl)benzo[d]oxazol-2(3H)-one] | > 10 mg/kg |
| c1ccc(CCC2(C3CCCO3)CCN(Cc3ccnn3-c3ccccc3)C2)cc1 (stereo not drawn) [Compound 228, 5-((3-phenethyl-3-(tetrahydrofuran-2-yl)pyrrolidin-1-yl)methyl)-1-phenyl-1H-pyrazole] | > 10 mg/kg |
| CS(=O)(=O)N(c1ccc(CN2CCC(CCc3ccccc3)(c3ccccn3)CC2)cc1)S(C)(=O)=O [Compound 64, N-(methylsulfonyl)-N-(4-((4-phenethyl-4-(pyridin-2-yl)piperidin-1-yl)methyl)phenyl)methane-sulfonamide] | > 10 mg/kg |
| CCOCC1(CCc2ccc3ccccc3c2)CCN(Cc2ccc(NC(C)=O)cc2)CC1 [Compound 148, N-(4-((4-(ethoxymethyl)-4-(2-(naphthalen-2-yl)ethyl)piperidin-1-yl)methyl)phenyl)acetamide] | > 10 mg/kg |
| CCOCC1(CCc2ccccc2)CCN(CCc2ccc(NC(C)=O)cc2)CC1 [Compound 126, N-(4-(2-(4-(ethoxymethyl)-4-phenethylpiperidin-1-yl)ethyl)phenyl)acetamide] | > 10 mg/kg |
| CCOCC1(c2ccccn2)CCN(Cc2ccc(C)nc2C)C1 (stereo not drawn) [Compound 313, 3-((3-(ethoxymethyl)-3-(pyridin-2-yl)pyrrolidin-1-yl)methyl)-2,6-dimethylpyridine] | > 10 mg/kg |
| CCOC[C@@]1(CCc2cc(C)cs2)CCN(C(C)(C)c2ccc(C)nc2)C1 [Compound 355, (S)-5-(2-(3-(ethoxymethyl)-3-(2-(4-methylthiophen-2-yl)ethyl)pyrrolidin-1-yl)propan-2-yl)-2-methylpyridine] | < 10 mg/kg |
| CCOC[C@@]1(CCc2nc(C)cs2)CCN(C(C)(C)c2ccc(C)nc2)C1.Cl [Compound 449, (S)-2-(2-(3-(ethoxymethyl)-1-(2-(6-methylpyridin-3-yl)propan-2-yl)pyrrolidin-3-yl)ethyl)-4-methylthiazole HCl] | < 10 mg/kg |
| CCOCC1(CCc2cccs2)CN(Cc2cccnc2)C1 [Compound 394, 3-((3-(ethoxymethyl)-3-(2-(thiophen-2-yl)ethyl)azetidin-1-yl)methyl)pyridine] | > 10 mg/kg |
| CCOC[C@@]1(CN(C)c2ccccc2)CCN(Cc2cccnc2)C1.Cl [Compound 443, (S)-N-((3-(ethoxymethyl)-l-(pyridin-3-ylmethyl)pyrrolidin-3-yl)methyl)-N-methylaniline HCl] | < 10 mg/kg |
